{"source": "patent US11993563B2", "about": "“Solid compositions of cocrystals of cannabinoids” (priority 2018, dated 2024)", "key": {"[1]": {"conditions": "in tablet", "protocol": "(§1) X-ray power Diffraction (XRPD) measurements were performed at ambient conditions on a PANalytical X'Pert PRO θ-θ diffractometer of 240 mm of radius in reflection geometry, equipped with Cu Kα radiation and a PIXcel detector, operated at 45 kV and 40 mA. Each sample was mounted on a zero-background silicon holder and allowed to spin at 0.25 rev/s during the data collection."}, "[2]": {"conditions": "open vial, accelerated stability conditions 40° C. and 75±5% relative humidity", "protocol": "as §1\nThe aim of the study is to evaluate the stability of cocrystal Form I of the present invention.\nCocrystal Form I (55 mg) is stored in an open vial and exposed to accelerated stability conditions (40° C. and 75±5% relative humidity) according to ICH guidelines (Guidance for Industry Q1A(R2) Stability Testing of New Drug Substances and Products—available on the website http://www.ich.org/products/guidelines/quality/quality-single/article/stability-testing-of-new-drug-substances-and-products.html on Aug. 4, 2017)."}, "[3]": {"assay": "Stability of the cocrystal on heating (DSC experiments)", "type": "physicochemical", "protocol": "The cocrystal Form VII of the present invention may also be further characterized by DSC (differential scanning calorimetry) analysis as shown in FIG. 15. […] The cocrystal Form VII of the present invention may also be further characterized by having a melting range of about 109-120° C.\nThe cocrystal Form XVIII of the present invention may also be further characterized by DSC (differential scanning calorimetry) analysis as shown in FIG. 35.\nThe cocrystal Form XIX of the present invention may also be further characterized by DSC (differential scanning calorimetry) analysis as shown in FIG. 37.\nDSC analyses were recorded with a Mettler Toledo DSC2. For cocrystals Forms […], and XI-XIX, the sample was weighed into a 40 μL aluminium crucible with a pinhole lid and was heated from 25 to 300° C. at a rate of 10° C./min, under nitrogen (50 mL/min). For cocrystals Form VII and VIII, the sample was weighed into a 40 μL aluminium crucible with a pinhole lid and was heated from 25 to 150° C. at a rate of 10° C./min, under nitrogen (50 mL/min)."}}}
{"smiles": "C=C(C)[C@@H]1CCC(C)=C[C@H]1c1c(O)cc(CCCCC)cc1O", "note": "[Form I, cocrystal of CBD and L-proline]", "values": [{"measurement": "integrity of the cocrystal after its formulation (XRPD of the tablet)", "setting": "[1]", "value": "maintained its integrity"}, {"measurement": "stability according to XRPD", "setting": "[2]", "value": "remained stable for at least three weeks"}]}
{"smiles": "C=C(C)[C@@H]1CCC(C)=C[C@H]1c1c(O)cc(CCC)cc1O", "note": "[Form XIX, cocrystal wherein the cannabinoid is CBDV and L-carnitine]", "values": [{"measurement": "remained stable after heating up to", "setting": "[3]", "value": "up to 110 °C"}]}
{"smiles": "C=C(C)[C@@H]1CCC(C)=C[C@H]1c1c(O)cc(CCC)cc1O", "note": "[Form XVIII, cocrystal wherein the cannabinoid is CBDV and L-proline]", "values": [{"measurement": "remained stable after heating up to", "setting": "[3]", "value": "up to 90 °C"}]}
{"smiles": "CCCCCc1cc(O)c2c(c1)OC(C)(C)[C@@H]1CCC(C)=C[C@@H]21", "note": "[Form VII, cocrystal of (−)-(6aR,10aR)-6,6,9-trimethyl-3-pentyl-6a,7,8,10a-tetrahydro-6H-benzo[c]chromen-I-ol and L-proline]", "values": [{"measurement": "integrity of the cocrystal after its formulation (XRPD of the tablet)", "setting": "[1]", "value": "maintained its integrity"}, {"measurement": "remained stable after heating up to", "setting": "[3]", "value": "up to 75 °C"}]}
